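48-hour exposure; five concentrations; linearly interpolated endpoints. GI50 = concentration required for 50% inhibition of growth. TGI: total growth inhibition.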
Assays:
Test in all cases: growth of human tumour cells (NCI), 48 h
[1] = tested on: UO-31 renal
[2] = tested on: LOX IMVI melanoma
[3] = tested on: 786-0 renal
[4] = tested on: A549 NSCLC
[5] = tested on: NCI-H226 lung
[6] = tested on: OVCAR-5 ovarian
[7] = tested on: OVCAR-8 ovarian
[8] = tested on: CAKI-1 renal
[9] = tested on: SNB-75 CNS
[10] = tested on: HCT-116 colon
[11] = tested on: SR leukemia
[12] = tested on: HL-60(TB) leukemia
[13] = tested on: HOP-62 NSCLC
[14] = tested on: SN12C renal
[15] = tested on: UACC-257 melanoma
[16] = tested on: COLO 205 colon
[17] = tested on: ACHN renal
[18] = tested on: IGROV1 ovarian
[19] = tested on: TK-10 renal
[20] = tested on: SW-620 colon
[21] = tested on: NCI-H522 lung
[22] = tested on: RXF 393 renal
[23] = tested on: MDA-MB-231 breast
[24] = tested on: HS 578T breast
[25] = tested on: SF-539 CNS
[26] = tested on: NCI-H23 lung
[27] = tested on: M14 melanoma
[28] = tested on: DU-145 prostate
[29] = tested on: SF-295 CNS
[30] = tested on: NCI-H460 lung
[31] = tested on: HOP-92 NSCLC
[32] = tested on: UACC-62 melanoma
[33] = tested on: EKVX NSCLC
[34] = tested on: OVCAR-3 ovarian
[35] = tested on: NCI/ADR-RES ovarian
[36] = tested on: U251 CNS
[37] = tested on: CCRF-CEM leukemia
[38] = tested on: SK-MEL-2 melanoma
[39] = tested on: K-562 leukemia
[40] = tested on: HCT-15 colon
[41] = tested on: SNB-19 CNS
[42] = tested on: MCF7 breast
[43] = tested on: SK-OV-3 ovarian
[44] = tested on: SK-MEL-5 melanoma
[45] = tested on: SF-268 CNS
[46] = tested on: A498 renal
[47] = tested on: BT-549 breast

## Cc1cc(-c2cnn3c(NCC4CC(C)(O)C4)cc(Oc4cccnc4)nc23)ccc1C(=O)NC1CC1 (centres undefined)
[1]
  GI50: 2.02 µM
  TGI: > 100 µM
[2]
  GI50: 0.395 µM
  TGI: > 100 µM
[3]
  GI50: 3.71 µM
  TGI: > 100 µM
[4]
  GI50: 3.49 µM
  TGI: > 100 µM
[5]
  GI50: > 100 µM
  TGI: > 100 µM
[6]
  GI50: > 100 µM
  TGI: > 100 µM
[7]
  GI50: 2.41 µM
  TGI: > 100 µM
[8]
  GI50: 1.38 µM
  TGI: > 100 µM
[9]
  GI50: 2.11 µM
  TGI: > 100 µM
[10]
  GI50: 0.0858 µM
  TGI: > 100 µM
[11]
  GI50: 0.525 µM
  TGI: > 100 µM
[12]
  GI50: 1.25 µM
  TGI: > 100 µM
[13]
  GI50: 8.57 µM
  TGI: > 100 µM
[14]
  GI50: 2.96 µM
  TGI: > 100 µM
[15]
  GI50: > 100 µM
  TGI: > 100 µM
[16]
  GI50: 1.06 µM
  TGI: > 100 µM
[17]
  GI50: 1.29 µM
  TGI: > 100 µM
[18]
  GI50: 0.992 µM
  TGI: > 100 µM
[19]
  GI50: 1.98 µM
  TGI: > 100 µM
[20]
  GI50: 0.591 µM
  TGI: > 100 µM
[21]
  GI50: 5.08 µM
  TGI: > 100 µM
[22]
  GI50: 1.55 µM
  TGI: > 100 µM
[23]
  GI50: 3.39 µM
  TGI: > 100 µM
[24]
  GI50: 4.19 µM
  TGI: > 100 µM
[25]
  GI50: 2.01 µM
  TGI: > 100 µM
[26]
  GI50: > 100 µM
  TGI: > 100 µM
[27]
  GI50: 1.44 µM
  TGI: > 100 µM
[28]
  GI50: 2.26 µM
  TGI: > 100 µM
[29]
  GI50: 3.28 µM
  TGI: > 100 µM
[30]
  GI50: 0.585 µM
  TGI: > 100 µM
[31]
  GI50: 6.42 µM
  TGI: > 100 µM
[32]
  GI50: 2.67 µM
  TGI: > 100 µM
[33]
  GI50: 3.76 µM
  TGI: > 100 µM
[34]
  GI50: > 100 µM
  TGI: > 100 µM
[35]
  GI50: > 100 µM
  TGI: > 100 µM
[36]
  GI50: 4.18 µM
  TGI: > 100 µM
[37]
  GI50: 0.259 µM
  TGI: > 100 µM
[38]
  GI50: 1.95 µM
  TGI: > 100 µM
[39]
  GI50: > 100 µM
  TGI: > 100 µM
[40]
  GI50: 0.706 µM
  TGI: > 100 µM
[41]
  GI50: > 60.7 µM
  TGI: > 100 µM
[42]
  GI50: 98.9 µM
  TGI: > 100 µM
[43]
  GI50: 2.69 µM
  TGI: > 100 µM
[44]
  GI50: 2.22 µM
  TGI: > 100 µM
[45]
  GI50: 8.72 µM
  TGI: > 100 µM
[46]
  GI50: 0.435 µM
  TGI: > 100 µM
[47]
  GI50: > 100 µM
  TGI: > 100 µM
